Assay [1] concerns the target T1, c-Met (cytoplasmic domain) (Homo sapiens, UniProt P08581).
T1 construct: 10 ng/mL c-Met (cytoplasmic domain, Invitrogen Corporation #PV3143); purchased Invitrogen Corporation PV3143
The experiment in a line: c-Met Kinase Assay (same methods as for ALK, with modifications). In kind it is biochemical. A digest of the protocol: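 Steps: coat wells with PLC-γ (10 μg/mL, Tris-buffered saline); add 10 ng/mL c-Met cytoplasmic domain to initiate; incubate 15 min, 37° C; detect phosphoproduct via Eu-N1 PT66 antibody.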

For assay [2], the target named is T2, baculovirus-expressed ALK (Homo sapiens, UniProt Q9UM73).
T2 construct: host or cells: baculovirus expression system
T2 sequence (Q9UM73 19-1620): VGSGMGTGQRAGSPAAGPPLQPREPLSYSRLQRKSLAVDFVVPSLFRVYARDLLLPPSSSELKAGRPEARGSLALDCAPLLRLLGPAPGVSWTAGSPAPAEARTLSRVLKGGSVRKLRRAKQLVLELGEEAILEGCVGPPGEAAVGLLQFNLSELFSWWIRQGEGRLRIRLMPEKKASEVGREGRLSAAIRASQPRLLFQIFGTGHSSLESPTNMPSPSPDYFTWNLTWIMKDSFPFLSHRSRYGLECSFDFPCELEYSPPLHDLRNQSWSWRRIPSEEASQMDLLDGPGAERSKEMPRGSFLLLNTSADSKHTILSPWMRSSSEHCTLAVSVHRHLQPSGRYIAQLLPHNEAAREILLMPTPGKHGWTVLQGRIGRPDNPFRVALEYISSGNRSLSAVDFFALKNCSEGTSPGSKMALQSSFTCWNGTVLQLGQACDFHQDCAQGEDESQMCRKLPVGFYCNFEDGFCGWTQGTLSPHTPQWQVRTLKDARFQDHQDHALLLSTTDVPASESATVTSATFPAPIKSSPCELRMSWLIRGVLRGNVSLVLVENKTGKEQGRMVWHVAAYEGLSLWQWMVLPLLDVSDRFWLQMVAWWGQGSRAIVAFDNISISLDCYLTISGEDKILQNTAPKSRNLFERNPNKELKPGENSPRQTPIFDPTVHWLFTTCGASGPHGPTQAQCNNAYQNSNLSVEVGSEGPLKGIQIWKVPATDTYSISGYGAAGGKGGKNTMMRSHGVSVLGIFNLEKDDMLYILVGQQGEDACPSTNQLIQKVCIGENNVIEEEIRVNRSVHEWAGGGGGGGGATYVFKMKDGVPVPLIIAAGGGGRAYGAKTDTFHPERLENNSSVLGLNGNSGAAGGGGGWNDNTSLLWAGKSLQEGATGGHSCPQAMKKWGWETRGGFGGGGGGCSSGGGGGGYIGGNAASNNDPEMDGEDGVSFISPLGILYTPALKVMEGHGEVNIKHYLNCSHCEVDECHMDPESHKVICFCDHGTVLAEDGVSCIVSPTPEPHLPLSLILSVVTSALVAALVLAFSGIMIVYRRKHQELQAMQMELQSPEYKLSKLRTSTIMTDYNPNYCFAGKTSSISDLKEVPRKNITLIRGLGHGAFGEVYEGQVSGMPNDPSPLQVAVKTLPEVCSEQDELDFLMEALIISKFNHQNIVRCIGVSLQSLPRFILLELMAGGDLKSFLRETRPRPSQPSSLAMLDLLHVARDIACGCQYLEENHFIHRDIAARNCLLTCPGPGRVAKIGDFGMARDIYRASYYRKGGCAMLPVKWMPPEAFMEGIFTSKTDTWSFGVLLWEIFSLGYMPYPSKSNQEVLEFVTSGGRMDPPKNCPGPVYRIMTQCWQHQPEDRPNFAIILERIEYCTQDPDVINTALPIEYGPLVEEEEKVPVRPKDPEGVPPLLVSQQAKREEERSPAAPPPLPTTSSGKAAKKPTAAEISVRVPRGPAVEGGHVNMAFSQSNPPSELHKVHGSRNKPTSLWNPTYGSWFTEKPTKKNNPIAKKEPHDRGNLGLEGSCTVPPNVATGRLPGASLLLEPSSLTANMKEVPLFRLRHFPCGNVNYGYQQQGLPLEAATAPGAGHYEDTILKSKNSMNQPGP
The experiment in a line: ALK Kinase Assay (ELISA-type, time-resolved fluorescence). In kind it is biochemical. The method in brief:
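Wells were coated with phospholipase C-γ at 10 μg/mL in Tris-buffered saline. Adding 30 ng/ml enzyme started the reaction, which ran at 37° C for 15 minutes before Eu-N1 PT66 antibody detection. Percent inhibition versus log10 concentration gave IC50 by variable-slope fit.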

The mark [3] stands for this setting: c-Met kinase inhibition, 1 μM ATP (Km level), read-out: cMet Activity.
[4] abbreviates: ALK kinase inhibition, 1 μM ATP (Km level), read-out: ALK Activity.
Setting [5] is: 1 μM ATP (Km level), read-out: cMet Activity (c-Met Kinase Inhibition, IC50).
Setting [6] is: 1 μM ATP (Km level), read-out: ALK Activity (ALK Kinase Inhibition, IC50).
[7] abbreviates: c-Met kinase inhibition, 1 μM ATP, read-out: cMet Activity.
Where [8] appears, read: ALK kinase inhibition, 1 μM ATP, read-out: ALK Activity.
Setting [9] is: 1 μM ATP (Km level), 10 ng/mL c-Met, read-out: cMet Activity (c-Met kinase inhibition, IC50 class).
Setting [10] is: 1 μM ATP (Km level), 30 ng/ml ALK, 37° C., 15 minutes, read-out: ALK Activity (ALK kinase inhibition, IC50 class).

pIC50: −log10 of the molar value. Where two headings read alike, the source gives them in different places.

T1 sequence (P08581 956-1390 limits assumed): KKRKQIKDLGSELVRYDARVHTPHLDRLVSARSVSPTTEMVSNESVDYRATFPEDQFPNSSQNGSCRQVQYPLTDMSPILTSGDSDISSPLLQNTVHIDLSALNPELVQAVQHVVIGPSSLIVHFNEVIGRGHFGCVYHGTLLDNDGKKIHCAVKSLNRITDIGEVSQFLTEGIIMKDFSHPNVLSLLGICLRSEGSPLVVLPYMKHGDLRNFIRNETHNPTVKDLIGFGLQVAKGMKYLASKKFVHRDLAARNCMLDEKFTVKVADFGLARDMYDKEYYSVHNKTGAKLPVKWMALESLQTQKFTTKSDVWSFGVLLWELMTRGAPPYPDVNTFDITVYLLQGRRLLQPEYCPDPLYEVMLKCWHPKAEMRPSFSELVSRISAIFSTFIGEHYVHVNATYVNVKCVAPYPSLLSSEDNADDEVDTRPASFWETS

For `CCN1CCc2ccc(OC)c(Nc3ncc(Cl)c(Nc4ccccc4S(=O)(=O)NC)n3)c2CC1` [Example 49, 2-[5-Chloro-2-(3-ethyl-7-methoxy-2,3,4,5-tetrahydro-1H-benzo[d]azepin-6-ylamino)-pyrimidin-4-ylamino]-N-methyl-benzenesulfonamide], the pIC50 is under 5.00 in assay [1] (setting [3]) and over 7.00 in assay [2] (setting [4]).
Regarding `CCN1CCSc2ccc(Nc3ncc(Cl)c(Nc4ccccc4C(=O)NC)n3)cc2C1` [Example 517, 2-[5-Chloro-2-(8-ethyl-6,7,8,9-tetrahydro-5-thia-aza-benzocyclohepten-2-ylamino)-pyrimidin-4-ylamino]-N-methyl-benzamide], the pIC50 in assay [1] (setting [5]) and in assay [2] (setting [6]) was over 7.00 in each case.
For the compound `CC(C)[C@@H](Nc1nc(Nc2ccc3c(c2)CCOC(=O)N3C)ncc1Cl)C(N)=O` [Example 1763, (R)-2-[5-Chloro-2-(5-methyl-6-oxo-5,6,8,9-tetrahydro-7-oxa-5-aza-benzocyclohepten-2-ylamino)-pyrimidin-4-ylamino]-3-methyl-butyramide], the pIC50 in assay [1] (setting [7]) and in assay [2] (setting [8]) was 5.00 to 6.00 throughout.
As for `CCN1C(=O)C(NC(=O)CN(C)C)CCc2c1ccc(Nc1ncc(Cl)c(Nc3ccccc3S(=O)(=O)N(C)C)n1)c2OC` (centres unmarked) [Example 1356, N-{7-[5-Chloro-4-(2-dimethylsulfamoyl-phenylamino)-pyrimidin-2-ylamino]-1-ethyl-6-methoxy-2-oxo-2,3,4,5-tetrahydro-1H-benzo[b]azepin-3-yl}-2-dimethylamino-acetamide], the pIC50 was under 5.00 in assay [1] (setting [9]) and over 7.00 in assay [2] (setting [10]).
For `CC1(C)CCC(=O)Nc2ccc(Nc3ncc(Cl)c(Nc4c(F)cccc4S(C)(=O)=O)n3)cc21` [Example 1260, 7-[5-Chloro-4-(2-fluoro-6-methanesulfonyl-phenylamino)-pyrimidin-2-ylamino]-5,5-dimethyl-1,3,4,5-tetrahydro-1-benzazepin-2-one], in that order: 5.00 to 6.00 and over 7.00.
With `CCN1C(=O)CCCc2c1ccc(Nc1ncc(Cl)c(Nc3ccc(OC)cc3-n3cccn3)n1)c2OC` [Example 613, 7-[5-Chloro-4-(4-methoxy-2-pyrazol-1-yl-phenylamino)-pyrimidin-2-ylamino]-1-ethyl-6-methoxy-1,3,4,5-tetrahydro-benzo[b]azepin-2-one], the pIC50 in assay [1] (setting [5]) is under 5.00; in assay [2] (setting [6]), over 7.00.
For `COc1c(Nc2ncc(Cl)c(N[C@H]3[C@@H](C(N)=O)[C@@H]4C=C[C@H]3C4)n2)ccc2c1CCC(N1CCCC(O)C1)CC2` (stereo partly drawn) [Example 910, (1S,2S,3R,4R)-3-{5-Chloro-2-[7-(3-hydroxy-piperidin-1-yl)-1-methoxy-6,7,8,9-tetrahydro-5H-benzocyclohepten-2-ylamino]-pyrimidin-4-ylamino}-bicyclo[2.2.1]hept-5-ene-2-carboxylic acid amide], in that order: under 5.00 and over 7.00.
Turning to `CC1(C)CCC(=O)Nc2cc(Nc3ncc(Cl)c(Nc4ccc(N5CCOCC5)cc4OCCC#N)n3)ccc21` [Example 1690, 3-{2-[5-Chloro-2-(5,5-dimethyl-2-oxo-2,3,4,5-tetrahydro-1H-benzo[b]azepin-8-ylamino)-pyrimidin-4-ylamino]-5-morpholin-4-yl-phenoxy}-propionitrile], the pIC50 in assay [1] (setting [7]) is 5.00 to 6.00; in assay [2] (setting [8]), over 7.00.
As to `CCN1CC(=O)Nc2cc(Nc3ncc(Cl)c(N[C@@H]4CCCC[C@H]4NS(C)(=O)=O)n3)c(OC)cc2C1` [Example 1658, N-{(1R,2R)-2-[5-Chloro-2-(4-ethyl-7-methoxy-2-oxo-2,3,4,5-tetrahydro-1H-benzo[e][1,4]diazepin-8-ylamino)-pyrimidin-4-ylamino]-cyclohexyl}-methane-sulfonamide], the pIC50 was under 5.00 in assay [1] (setting [7]) and over 7.00 in assay [2] (setting [8]).
Take `CCN1C(=O)CCCc2cc(Nc3ncc(Cl)c(Nc4ccccc4-c4nccn4C)n3)c(OC)cc21` [Example 996, 7-{5-Chloro-4-[2-(1-methyl-1H-imidazol-2-yl)-phenylamino]-pyrimidin-2-ylamino}-1-ethyl-8-methoxy-1,3,4,5-tetrahydro-benzo[b]azepin-2-one]: the figures for the pIC50 in assay [1] (setting [5]) and in assay [2] (setting [6]) were under 5.00 and over 7.00, respectively.
In the case of `CNC(=O)c1sccc1Nc1nc(Nc2ccc3c(c2)NC(=O)C(NC(C)=O)CC3(C)C)ncc1Cl` (centres unmarked) [Example 1291, 3-[2-(3-Acetylamino-5,5-dimethyl-2-oxo-2,3,4,5-tetrahydro-1H-1-benzazepin-8-ylamino)-5-chloro-pyrimidin-4-ylamino]-thiophene-2-carboxylic acid methylamide], the pIC50 in assay [1] (setting [9]) is over 7.00; in assay [2] (setting [10]), 5.00 to 6.00.
`CNC(=O)c1cccc(F)c1Nc1nc(Nc2ccc3c(c2)CCN(C(=O)C2COCCO2)CC3)ncc1Cl` (centres unmarked) [Example 639, 2-{5-Chloro-2-[3-([1,4]dioxane-2-carbonyl)-2,3,4,5-tetrahydro-1H-benzo[d]azepin-7-ylamino]-pyrimidin-4-ylamino}-3-fluoro-N-methyl-benzamide]: the pIC50 in assay [1] (setting [5]) and in assay [2] (setting [6]) was over 7.00 throughout.
In the case of `CC(C)[C@H](Nc1nc(Nc2ccc3c(c2)CCOC(=O)N3C)ncc1Cl)C(N)=O` [Example 1764, (S)-2-[5-chloro-2-(5-methyl-6-oxo-5,6,8,9-tetrahydro-7-oxa-5-aza-benzocyclohepten-2-ylamino)-pyrimidin-4-ylamino]-3-methyl-butyramide], the pIC50 in assay [1] (setting [7]) was under 5.00; in assay [2] (setting [8]), 5.00 to 6.00.
Regarding `CCN1C(=O)[C@H](N2CCOCC2)CCc2c1ccc(Nc1ncc(Cl)c(N[C@H]3[C@@H](C(N)=O)[C@@H]4C=C[C@H]3C4)n1)c2OC` (single isomer, unassigned) [Example 1344], the figures for the pIC50 in assay [1] (setting [9]) and in assay [2] (setting [10]) were under 5.00 and over 7.00, respectively.
For `CNC(=O)c1ccccc1Nc1nc(Nc2cccc3c2C(=O)NC(C)CN3C(=O)C(F)(F)F)ncc1Cl` (centres unmarked) [Example 229, 2-{5-Chloro-2-[3-methyl-5-oxo-1-(2,2,2-trifluoro-acetyl)-2,3,4,5-tetrahydro-1H-benzo[e][1,4]diazepin-6-ylamino]-pyrimidin-4-ylamino}-N-methyl-benzamide], the pIC50 in assay [1] (setting [3]) and in assay [2] (setting [4]) was under 5.00 each time.
In the case of `COCCN1CC(=O)Nc2cc(Nc3ncc(Cl)c(N[C@H]4[C@@H](C(N)=O)[C@@H]5C=C[C@H]4C5)n3)c(OC)cc2C1` [Example 1665, (1S,2S,3R,4R)-3-{5-Chloro-2-[7-methoxy-4-(2-methoxy-ethyl)-2-oxo-2,3,4,5-tetrahydro-1H-benzo[e][1,4]diazepin-8-ylamino]-pyrimidin-4-ylamino}-bicyclo[2.2.1]hept-5-ene-2-carboxylic acid amide], the results for the pIC50 in assay [1] (setting [7]) and in assay [2] (setting [8]) were under 5.00 and over 7.00, respectively.
Take `CCN1C2CCC1c1cc(Nc3ncc(Cl)c(N[C@@H]4CCCC[C@H]4NS(C)(=O)=O)n3)ccc1C2` (stereo partly drawn) [Example 71, N-{(1R,2R)-2-[5-Chloro-2-(12-ethyl-12-aza-tricyclo[7.2.1.0*2,7*]dodeca-2(7),3,5-trien-4-ylamino)-pyrimidin-4-ylamino]-cyclohexyl}-methanesulfonamide]: the pIC50 in assay [1] (setting [3]) is 6.00 to 7.00; in assay [2] (setting [4]), over 7.00.
In the case of `CNC(=O)c1cccc(F)c1Nc1nc(Nc2ccc3c(c2)CCN(C[C@@H](O)C(F)(F)F)CC3)ncc1Cl` [Example 332, 2-{5-Chloro-2-[3-((R)-3,3,3-trifluoro-2-hydroxy-propyl)-2,3,4,5-tetrahydro-1H-benzo[d]azepin-7-ylamino]-pyrimidin-4-ylamino}-3-fluoro-N-methyl-benzamide], the pIC50 in assay [1] (setting [3]) and in assay [2] (setting [4]) was over 7.00 in each case.
Consider `CNC(=O)c1cc(OC)ccc1Nc1nc(Nc2ccc3c(c2)CCN(CCOC)CC3)ncc1Cl` [Example 618, 2-{5-Chloro-2-[3-(2-methoxy-ethyl)-2,3,4,5-tetrahydro-1H-benzo[d]azepin-7-ylamino]-pyrimidin-4-ylamino}-5-methoxy-N-methyl-benzamide], for which the pIC50 in assay [1] (setting [5]) and in assay [2] (setting [6]) was over 7.00 in each case.
In the case of `COc1cc2c(cc1Nc1ncc(Cl)c(Nc3ccc(N(C)C)cc3OC)n1)CCN(Cc1ncco1)CC2` [Example 1172, 5-Chloro-N*4*-(4-dimethylamino-2-methoxy-phenyl)-N*2*-(8-methoxy-3-oxazol-2-ylmethyl-2,3,4,5-tetrahydro-1H-benzo[d]azepin-7-yl)-pyrimidine-2,4-diamine], the pIC50 in assay [1] (setting [9]) was under 5.00; in assay [2] (setting [10]), over 7.00.
Turning to `CNC(=O)c1sccc1Nc1nc(Nc2ccc3c(c2)N(C(=O)CN2CCCC2)CCCO3)ncc1Cl` [Example 1705, 3-{5-Chloro-2-[9-(2-pyrrolidin-1-yl-acetyl)-6,7,8,9-tetrahydro-5-oxa-9-aza-benzocyclohepten-2-ylamino]-pyrimidin-4-ylamino}-thiophene-2-carboxylic acid methylamide], the pIC50 in assay [1] (setting [7]) and in assay [2] (setting [8]) was 6.00 to 7.00 in each case.
Regarding `CCN1CC(=O)N(CC)c2cc(Nc3ncc(Cl)c(Nc4c(F)cccc4C(=O)NC)n3)ccc2C1` [Example 1870, 2-[5-Chloro-2-(1,4-diethyl-2-oxo-2,3,4,5-tetrahydro-1H-benzo[e][1,4]diazepin-8-ylamino)-pyrimidin-4-ylamino]-3-fluoro-N-methyl-benzamide], the pIC50 in assay [1] (setting [7]) was over 7.00; in assay [2] (setting [8]) it was 6.00 to 7.00.

Values taken from patent publication US8148391B2 (Cephalon, Inc., priority 2006, dated 2012).
